The source of these data is US20070154449A1, “TIGHT JUNCTION MODULATING PEPTIDES FOR ENHANCED MUCOSAL DELIVERY OF THERAPEUTIC COMPOUNDS” (Nastech Pharmaceutical Company Inc., priority 2005, published 2007).

No end group written: not given here.

The nature of series [1]: Intranasal PYY(3-36) pharmacokinetics in rabbits with various TJMPs (Example 10). The settings on record: for AUCinf / AUClast / Cmax / T1/2 / Tmax: PYY(3-36) in plasma, 205 μg/kg intranasal with the named TJMP (concentration per Table 11, 50-1000 μM) or PBS, mean; for AUCinf / AUClast / Cmax / T1/2 / Tmax / In Vivo Tier Ranking: rabbit; for In Vivo Tier Ranking: PYY(3-36) 205 μg/kg intranasal, TJMP concentration per Table 11: PN159 50 μM, PN161, PN202 100 μM, PN27 250 μM, PN58, PN73, PN228 500 μM, PN183, PN556 1000 μM; for in vivo permeability relative to PN159: PYY(3-36) intranasal in rabbits, TJMPs at the concentrations tested. The class given is in vivo, New Zealand White rabbits. From the text: The tubes were chilled until […].

The test system of series [2] is human-derived tracheal/bronchial epithelial cells (EpiAirway™ Tissue model system). Description: Cytotoxicity (LDH assay), EpiAirway tissue model. The series is classed as cell-based. Here is the method: The amount of cell death was assayed by measuring the release of lactate dehydrogenase (LDH) from the cells into the apical medium using a CytoTox 96 Cytotoxicity Assay Kit (Promega Corp., Madison, Wis.). One percent Octylphenolpoly (ethyleneglycolether)×(Triton X-100™) diluted in phosphate buffered saline (PBS) causes 100% lysis in cultured cells and served herein as a positive control for the LDH assay. Following the one hour incubation period with a test formulation (refer to Table 4 in Example 2 for details of test formulations), the total liquid volume of each insert was brought to a final volume of 200 μl with culture medium. The apical medium was then mixed by pipetting four times with a multichannel pipette set to a 100 μl volume. After mixing, a 100 μl sample from the apical side of each insert was transferred to a new 96-well plate. The apical media samples were sealed with a plate sealer and stored at room temperature for same day analysis or stored overnight at 4° C. for analysis the next day. To measure LDH levels, 5 μl of the 100 μl apical media sample was diluted in 45 μl DPBS in a new 96-well plate. Fresh, cell-free culture medium will be used as a blank. Fifty microliters of substrate solution was added to each well and incubated for 30 minutes at room temperature away from direct light. Following the 30 minute incubation, 50 μl of stop solution was added to each well. Optical density (OD) was measured at 490 nm with a uQuant absorbance plate reader from Biotek Instruments. The measurement of LDH release into the apical media indicates relative cytotoxicity of the samples. Percent cytotoxicity for each test formulation was calculated by subtracting the measured absorbance of the PBS control (basal level of LDH release) from the measured absorbance of the individual test formulation and then dividing that value by the measured absorbance for the 1% Triton X-100™ positive control, multiplied by 100.
The formula used to calculate percent cytotoxicity is as follows: [formula] Osmolality
Of the total 300 μl volume for each test formulation, only a 20 μl sample was applied to the human-derived tracheal/bronchial epithelial cells (EpiAirway™ Tissue model system) in order to assess the effect each test formulation had on TER, LDH and sample permeation.

Series [3] deals with in vitro epithelial tissue model. The experiment in a line: Papp of drugs with and without PN159, in vitro tissue model. As to conditions: for Papp: Galantamine 40 mg/mL, pH 5.0. The method, then: In the present studies, 40 mg/ml galantamine in the lactate salt form was combined with 25, 50, and 100 μM PN159 in solution, pH 5.0 and osmolarity ˜270 mOsm. The combination was tested using an in vitro epithial tissue model to monitor galantamine permeation, transepithelial electrical resistance (TER), and the cytotoxicity of the formulation by LDH and MTT assays as described above. Permeation measurements for galantamine were conducted by standard HPLC analysis, as follows.
Galantamine concentration in the formulation and in the basolateral media (permeation samples) was determined using an isocratic LC (Waters Alliance) method with UV detection. • Column: Waters Symmetry Shield, C18, 5 um, 25×0.46 cm • Mobile phase: 5% ACN in 50 mM ammonium formate, pH 3.0 • Flow rate: 1 ml/min • Column temperature: 30° C. • Calibration curve: 0-400 μg/ml Galantamine HBr • Detection: UV at 285 nm
To evaluate permeabilizing activity in this context, 40 mg/ml galantamine in the lactate salt form was combined with 25, 50, and 100 μM PN159 in solution, pH 5.0 and osmolarity ˜270 mOsm. The combination was tested using an in vitro epithelal tissue model to monitor galantamine permeation, transepithelial electrical resistance (TER), and the cytotoxicity of the formulation by LDH and MTT assays.
For this purpose, in vitro tissue studies were performed on salmon calcitonin as a model therapeutic peptide in the absence and presence of […] PN159.

For “KETWWETWWTEWSQPGRKKRRQRRRRPPQ-NH2 [PN183]”, in series [1], the AUCinf is 275000 pg·min/mL; the AUClast came out at 258000 pg·min/mL; the highest concentration (Cmax) (as a rule, the maximum level reached in the sampled fluid or tissue) was found to be 5.45 ng/mL; the T1/2 stood at 33.7 min. Besides, in series [1], the Tmax (usually the time from dosing to the highest level) came to 22.0 min.
Regarding `CC[C@H](C)[C@H](NC(=O)[C@H](CCCCN)NC(=O)[C@H](CCCCN)NC(=O)[C@H](C)NC(=O)[C@H](CC(C)C)NC(=O)[C@H](C)NC(=O)[C@H](C)NC(=O)[C@H](CC(C)C)NC(=O)[C@H](C)NC(=O)[C@H](CCCCN)NC(=O)[C@H](CC(C)C)NC(=O)[C@H](CC(N)=O)NC(=O)[C@@H](NC(=O)[C@H](CCCCN)NC(=O)CNC(=O)[C@H](CC(C)C)NC(=O)[C@H](CC(C)C)NC(=O)[C@H](Cc1ccc(O)cc1)NC(=O)CNC(=O)[C@H](C)NC(=O)[C@H](CO)NC(=O)[C@H](CC(N)=O)NC(=O)[C@H](CC(C)C)NC(=O)[C@@H](NC(=O)[C@H](Cc1c[nH]c2ccccc12)NC(=O)CN)[C@@H](C)O)[C@@H](C)CC)C(=O)N[C@@H](CC(C)C)C(N)=O` [PN161], in series [1], the “In Vivo Tier Ranking” value is “I”, the AUCinf is 1.65e+06 pg·min/mL, the AUClast turned out to be 1.62e+06 pg·min/mL and the peak concentration (Cmax) turned out to be 32.1 ng/mL. Further, in series [1], the T1/2 turned out to be 34.3 min, the Tmax is on record as 24.0 min and the “in vivo permeability relative to PN159” value was “comparable to PN159”.
KLWSAWPSLWSSLWKP-NH2 [PN228]: in series [1], the AUCinf worked out at 1.08e+06 pg·min/mL, the AUClast was 1.06e+06 pg·min/mL, the Cmax was 21.2 ng/mL and the T1/2 turned out to be 30.4 min. Moreover, the Tmax in series [1] stood at 31.0 min.
“Octylphenolpoly (ethyleneglycolether)× [Triton X-100, reference compound]”: in series [2] (1% Triton X-100, positive (100% release) control), the LDH is recorded as 100%.
Take `CC[C@H](C)[C@H](NC(=O)[C@H](CCC(=O)O)NC(=O)[C@H](CO)NC(=O)[C@@H](NC(=O)[C@@H](N)CO)C(C)C)C(=O)N[C@@H](CCC(N)=O)C(=O)N[C@@H](CC(C)C)C(=O)N[C@@H](CCSC)C(=O)N[C@@H](Cc1cnc[nH]1)C(=O)N[C@@H](CC(N)=O)C(=O)N[C@@H](CC(C)C)C(=O)NCC(=O)N[C@@H](CCCCN)C(=O)N[C@@H](Cc1cnc[nH]1)C(=O)N[C@@H](CC(C)C)C(=O)N[C@@H](CC(N)=O)C(=O)N[C@@H](CO)C(=O)N[C@@H](CCSC)C(=O)N[C@@H](CCC(=O)O)C(=O)N[C@@H](CCCN=C(N)N)C(=O)N[C@H](C(=O)N[C@@H](CCC(=O)O)C(=O)N[C@@H](Cc1c[nH]c2ccccc12)C(=O)N[C@@H](CC(C)C)C(=O)N[C@@H](CCCN=C(N)N)C(=O)N[C@@H](CCCCN)C(=O)N[C@@H](CCCCN)C(=O)N[C@@H](CC(C)C)C(=O)N[C@@H](CCC(N)=O)C(=O)N[C@@H](CC(=O)O)C(=O)N[C@H](C(=O)N[C@@H](Cc1cnc[nH]1)C(=O)N[C@@H](CC(N)=O)C(=O)N[C@@H](Cc1ccccc1)C(=O)O)C(C)C)C(C)C` [PTH1-34, human parathyroid hormone 1-34]: the “fold increase in Papp of PTH1-34 with PN159” value in series [3] is reported as 3-5 fold.
With AAVALLPAVLLALLAPRKKRRQRRRPPQ-NH2 [PN27], in series [1], the “In Vivo Tier Ranking” value was “I”, the AUCinf was 1.71e+06 pg·min/mL, the AUClast stood at 1.67e+06 pg·min/mL and the Cmax came to 29.3 ng/mL. In series [1], the T1/2 came to 29.9 min, the Tmax was 33.0 min and the “in vivo permeability relative to PN159” value is “comparable to PN159”.
Take LRKLRKRLLRLRKLRKRLLR-NH2 [PN745]: the LDH in series [2] (25 μM peptide, 1 h incubation, % of 1% Triton X-100 control) is 11%; in series [2] (100 μM peptide, 1 h incubation, % of 1% Triton X-100 control) it was 28%; in series [2] (250 μM peptide, 1 h incubation, % of 1% Triton X-100 control) it was 45%; in series [2] (500 μM peptide, 1 h incubation, % of 1% Triton X-100 control) it was 45%; in series [2] (1000 μM peptide, 1 h incubation, % of 1% Triton X-100 control), 45%.
Regarding `COc1ccc2c3c1O[C@H]1C[C@@H](O)C=C[C@@]31CCN(C)C2` [Galantamine, galantamine], the “fold increase in Papp of galantamine with PN159” value in series [3] (40 mg/ml galantamine lactate, pH 5.0, with 25, 50, 100 PN159 versus without) was 2.5-3.5 fold. The apparent permeability coefficient (Papp) (in general, a coefficient for how fast a substance crosses the barrier) in series [3] ([PN159] 0 μM) was 2.1 ×10⁻⁶ cm/s; in series [3] ([PN159] 0 μM, listed as galantamine), “about 2.1×10^−6 cm/s”; in series [3] ([PN159] 25 μM), 5.1 ×10⁻⁶ cm/s; in series [3] ([PN159] 50 μM), 6.2 ×10⁻⁶ cm/s; in series [3] ([PN159] 100 μM) it was 7.2 ×10⁻⁶ cm/s.
In series [1], `CC[C@H](C)[C@H](NC(=O)[C@H](CCCCN)NC(=O)[C@@H](NC(=O)[C@H](CCC(N)=O)NC(=O)[C@@H](N)CCCNC(=N)N)[C@@H](C)CC)C(=O)N[C@@H](Cc1c[nH]c2ccccc12)C(=O)N[C@@H](Cc1ccccc1)C(=O)N[C@@H](CCC(N)=O)C(=O)N[C@@H](CC(N)=O)C(=O)N[C@@H](CCCNC(=N)N)C(=O)N[C@@H](CCCNC(=N)N)C(=O)N[C@@H](CCSC)C(=O)N[C@@H](CCCCN)C(=O)N[C@@H](Cc1c[nH]c2ccccc12)C(=O)N[C@@H](CCCCN)C(=O)N[C@@H](CCCCN)C(N)=O` [PN58] came in with an AUCinf of 871000 pg·min/mL, an AUClast of 830000 pg·min/mL, a Cmax of 12.8 ng/mL and a T1/2 of 29.5 min. Besides, the Tmax in series [1] was 43.0 min.
`CC(C)C[C@H](NC(=O)[C@H](CCCCN)NC(=O)CNC(=O)[C@H](CC(C)C)NC(=O)[C@@H](NC(=O)[C@@H]1CSSC[C@H](N)C(=O)N[C@@H](CO)C(=O)N[C@@H](CC(N)=O)C(=O)N[C@@H](CC(C)C)C(=O)N[C@@H](CO)C(=O)N[C@@H]([C@@H](C)O)C(=O)N1)C(C)C)C(=O)N[C@@H](CO)C(=O)N[C@@H](CCC(N)=O)C(=O)N[C@@H](CCC(=O)O)C(=O)N[C@@H](CC(C)C)C(=O)N[C@@H](Cc1c[nH]cn1)C(=O)N[C@@H](CCCCN)C(=O)N[C@@H](CC(C)C)C(=O)N[C@@H](CCC(N)=O)C(=O)N[C@H](C(=O)N[C@@H](Cc1ccc(O)cc1)C(=O)N1CCC[C@H]1C(=O)N[C@@H](CCCNC(=N)N)C(=O)N[C@H](C(=O)N[C@@H](CC(N)=O)C(=O)N[C@H](C(=O)NCC(=O)N[C@@H](CO)C(=O)NCC(=O)N[C@H](C(=O)N1CCC[C@H]1C(N)=O)[C@@H](C)O)[C@@H](C)O)[C@@H](C)O)[C@@H](C)O` [Calcitonin, salmon calcitonin]: in series [3], the “fold increase in Papp of calcitonin with PN159” value was 23-47 fold.
